From patent US9765105B2, “Macrolide compound” (Pulike Biological Engineering, Inc., priority 2013, dated 2017)

Tests used:
Experiment in all cases: in vitro susceptibility, MIC by mini broth dilution
Format in all cases: cell-based
[1] = test system: Streptococcus equines CVCC556; conditions: strain CVCC556
Method in brief: (§1)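 Bacteria were revived from −20° C stocks and streaked twice on solid medium, each time grown 20 h at 35° C. Compounds were double-diluted in DMSO across 11 wells and tested in two parallel rows. The bacterial suspension was diluted 1:200 with liquid medium before MIC determination by mini broth dilution.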

[2] = test system: Pasteurella multocida CVCC399; conditions: strain CVCC399
Method in brief: as §1

[3] = test system: Actinobacillus pleuropneumoniae CVCC262; conditions: strain CVCC262
Method in brief: as §1

[4] = test system: Haemophilus parasuis
Method in brief: as §1

[5] = test system: Staphylococcus aureus CVCC26003; conditions: strain CVCC26003
Method in brief: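 MICs were determined by mini broth dilution under NCCLS standards in CAMHB, using revived S. aureus CVCC26003 subcultured 20 h at 35° C. Compounds were two-fold serially diluted in DMSO across 11 wells, with duplicate rows. Bacterial suspension was diluted 1:200 in medium before inoculation.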

MIC values, Streptococcus equines CVCC556 [1] [ug/mi]	MIC values, Pasteurella multocida CVCC399 [2] [ug/mi]	MIC values, Actinobacillus pleuropneumoniae CVCC262 [3] [ug/mi]	MIC values, Haemophilus parasuis [4] [ug/mi]	MIC values, Staphylococcus aureus CVCC26003 [5] [ug/mi]	Compound
0.25	1	0.25	0.25	0.25	CCCN1C[C@H](C)[C@@H](O)[C@](C)(O)[C@@H](CC)OC(=O)[C@H](C)[C@@H](O[C@H]2C[C@@](C)(OC)[C@](O)(CNCc3ccc(C(F)(F)F)cc3)[C@H](C)O2)[C@H](C)[C@@H](O[C@@H]2O[C@H](C)C[C@H](N(C)C)[C@H]2O)[C@](C)(O)C[C@H]1C [syzx-116]
0.25	1	0.25	0.25	0.25	CCCN1C[C@H](C)[C@@H](O)[C@](C)(O)[C@@H](CC)OC(=O)[C@H](C)[C@@H](O[C@H]2C[C@@](C)(OC)[C@](O)(CNCc3ccc([N+](=O)[O-])cc3)[C@H](C)O2)[C@H](C)[C@@H](O[C@@H]2O[C@H](C)C[C@H](N(C)C)[C@H]2O)[C@](C)(O)C[C@H]1C [syzx-119]
0.25	0.5	0.25	0.25	0.25	CCCN1C[C@H](C)[C@@H](O)[C@](C)(O)[C@@H](CC)OC(=O)[C@H](C)[C@@H](O[C@H]2C[C@@](C)(OC)[C@](O)(CNCc3ccc(Cl)cc3)[C@H](C)O2)[C@H](C)[C@@H](O[C@@H]2O[C@H](C)C[C@H](N(C)C)[C@H]2O)[C@](C)(O)C[C@H]1C [syzx-120]
0.5	0.5	0.25	0.25	0.25	CCCN1C[C@H](C)[C@@H](O)[C@](C)(O)[C@@H](CC)OC(=O)[C@H](C)[C@@H](O[C@H]2C[C@@](C)(OC)[C@](O)(CNCc3cccnc3)[C@H](C)O2)[C@H](C)[C@@H](O[C@@H]2O[C@H](C)C[C@H](N(C)C)[C@H]2O)[C@](C)(O)C[C@H]1C [syzx-121]
0.25	1	1	0.5	1	CCCN1C[C@H](C)[C@@H](O)[C@](C)(O)[C@@H](CC)OC(=O)[C@H](C)[C@@H](O[C@H]2C[C@@](C)(OC)[C@](O)(CNCCCOCC)[C@H](C)O2)[C@H](C)[C@@H](O[C@@H]2O[C@H](C)C[C@H](N(C)C)[C@H]2O)[C@](C)(O)C[C@H]1C [syzx-122]
0.5	2	4	4	4	CCCN1C[C@H](C)[C@@H](O)[C@](C)(O)[C@@H](CC)OC(=O)[C@H](C)[C@@H](O[C@H]2C[C@@](C)(OC)[C@](O)(CN(C)CCO)[C@H](C)O2)[C@H](C)[C@@H](O[C@@H]2O[C@H](C)C[C@H](N(C)C)[C@H]2O)[C@](C)(O)C[C@H]1C [syzx-126]
0.25	8	1	1	4	CCCN1C[C@H](C)[C@@H](O)[C@](C)(O)[C@@H](CC)OC(=O)[C@H](C)[C@@H](O[C@H]2C[C@@](C)(OC)[C@](O)(CNCc3cccc(OC)c3)[C@H](C)O2)[C@H](C)[C@@H](O[C@@H]2O[C@H](C)C[C@H](N(C)C)[C@H]2O)[C@](C)(O)C[C@H]1C [syzx-127]
0.25	0.5	0.25	0.25	0.25	CCCN1C[C@H](C)[C@@H](O)[C@](C)(O)[C@@H](CC)OC(=O)[C@H](C)[C@@H](O[C@H]2C[C@@](C)(OC)[C@](O)(CNCc3ccc(F)cc3F)[C@H](C)O2)[C@H](C)[C@@H](O[C@@H]2O[C@H](C)C[C@H](N(C)C)[C@H]2O)[C@](C)(O)C[C@H]1C [syzx-131]

The remaining lines, values behind:

Compound	MIC values, Streptococcus equines CVCC556 [1] [ug/mi]	MIC values, Pasteurella multocida CVCC399 [2] [ug/mi]	MIC values, Actinobacillus pleuropneumoniae CVCC262 [3] [ug/mi]	MIC values, Haemophilus parasuis [4] [ug/mi]	MIC values, Staphylococcus aureus CVCC26003 [5] [ug/mi]
CCCN1C[C@H](C)[C@@H](O)[C@](C)(O)[C@@H](CC)OC(=O)[C@H](C)[C@@H](O[C@H]2C[C@@](C)(OC)[C@](O)(CNc3cccc(Cl)c3)[C@H](C)O2)[C@H](C)[C@@H](O[C@@H]2O[C@H](C)C[C@H](N(C)C)[C@H]2O)[C@](C)(O)C[C@H]1C [syzx-113]	0.25	1	0.25	0.25	0.25
CCCCCCNC[C@]1(O)[C@H](C)O[C@@H](O[C@H]2[C@H](C)[C@@H](O[C@@H]3O[C@H](C)C[C@H](N(C)C)[C@H]3O)[C@](C)(O)C[C@@H](C)N(CCC)C[C@H](C)[C@@H](O)[C@](C)(O)[C@@H](CC)OC(=O)[C@@H]2C)C[C@@]1(C)OC [syzx-115]	0.25	0.5	0.25	0.25	0.25
CCCN1C[C@H](C)[C@@H](O)[C@](C)(O)[C@@H](CC)OC(=O)[C@H](C)[C@@H](O[C@H]2C[C@@](C)(OC)[C@](O)(CNCC3CC3)[C@H](C)O2)[C@H](C)[C@@H](O[C@@H]2O[C@H](C)C[C@H](N(C)C)[C@H]2O)[C@](C)(O)C[C@H]1C [syzx-117]	0.25	0.5	0.25	0.25	0.25
CCCN1C[C@H](C)[C@@H](O)[C@](C)(O)[C@@H](CC)OC(=O)[C@H](C)[C@@H](O[C@H]2C[C@@](C)(OC)[C@](O)(CNCc3ccc(OC)cc3)[C@H](C)O2)[C@H](C)[C@@H](O[C@@H]2O[C@H](C)C[C@H](N(C)C)[C@H]2O)[C@](C)(O)C[C@H]1C [syzx-118]	0.25	0.25	0.25	0.25	0.25
CCCN1C[C@H](C)[C@@H](O)[C@](C)(O)[C@@H](CC)OC(=O)[C@H](C)[C@@H](O[C@H]2C[C@@](C)(OC)[C@](O)(CNCCOC)[C@H](C)O2)[C@H](C)[C@@H](O[C@@H]2O[C@H](C)C[C@H](N(C)C)[C@H]2O)[C@](C)(O)C[C@H]1C [syzx-125]	0.25	2	0.5	0.5	1
CCCN1C[C@H](C)[C@@H](O)[C@](C)(O)[C@@H](CC)OC(=O)[C@H](C)[C@@H](O[C@H]2C[C@@](C)(OC)[C@](O)(CNC3CCCC3)[C@H](C)O2)[C@H](C)[C@@H](O[C@@H]2O[C@H](C)C[C@H](N(C)C)[C@H]2O)[C@](C)(O)C[C@H]1C [syzx-130]	0.25	0.5	0.5	8	0.25
CCCN1C[C@H](C)[C@@H](O)[C@](C)(O)[C@@H](CC)OC(=O)[C@H](C)[C@@H](O[C@H]2C[C@@](C)(OC)[C@](O)(CNc3ccc(Cl)nn3)[C@H](C)O2)[C@H](C)[C@@H](O[C@@H]2O[C@H](C)C[C@H](N(C)C)[C@H]2O)[C@](C)(O)C[C@H]1C [syzx-132]	0.25	2	0.5	0.5	1
CCCN1C[C@H](C)[C@@H](O)[C@](C)(O)[C@@H](CC)OC(=O)[C@H](C)[C@@H](O[C@H]2C[C@@](C)(OC)[C@](O)(CNCCCCO)[C@H](C)O2)[C@H](C)[C@@H](O[C@@H]2O[C@H](C)C[C@H](N(C)C)[C@H]2O)[C@](C)(O)C[C@H]1C [syzx-133]	0.5	2	1	0.5	1
CCCN1C[C@H](C)[C@@H](O)[C@](C)(O)[C@@H](CC)OC(=O)[C@H](C)[C@@H](O[C@H]2C[C@@](C)(OC)[C@](O)(CNC(C)CCc3ccccc3)[C@H](C)O2)[C@H](C)[C@@H](O[C@@H]2O[C@H](C)C[C@H](N(C)C)[C@H]2O)[C@](C)(O)C[C@H]1C (stereo partly shown) [syzx-134]	0.25	0.5	0.25	0.25	0.25
